Test results as given in patent publication US4248884A, “2-Pyrrolidine methanol derivatives utilizable as medicaments” (Pharmindustrie, priority 1978, dated 1981).
Like-named read-outs stand apart in the source and are kept apart here.

Assays:
serum triglycerides = assay: Hypotriglyceridemiant activity: olive oil induced experimental hypertriglyceridemia in fasting rats; format: in vivo, male rats
Description: Journal of Pharmacology, 1973, 23, 131, the disclosure of which is incorporated herein by reference.
The rats are killed two hours after the administration of the oil by decapitation. The serum is separated by centrifuging and the triglycerides are determined on an amount of 0.2 ml of serum by extraction with a heptane-isopropanol mixture and colorimetry according to the method of Van Handel et al., J. Lab. and Clin. Med., 1957, 50, 152-157, by using an assembly of analytical reagents known commercially as "Triclycerides-kit Bio Merieux".

[1] = Acute toxicity by oral administration; settings: in vivo; male mouse CD1, oral, after three days of observation
Source text: The acute toxicities of the compounds according to the invention have been determined on the male mouse CD1 (Charles River) by oral administration. The LD50 have been calculated, after three days of observation, by the cumulative method of J. J. Reed et al. (Am. J. Hyg., 1938, 27, 493), the disclosure of which is incorporated herein by reference.

[2] = system: reserpine induced hypothermia (central nervous system); assay: Action on the central nervous system: reserpine induced hypothermia in mice; format: in vivo; settings: Mus musculus, oral, read-out: DE50 oral (dose exerting an antihypothermic effect equal to 50% of that caused by 15 mg/kg oral imipramine)
Description: The activity of the products on the central nervous system has been shown by the test of reserpine induced hypothermia in mice, according to the method of D. M. Asken, Life Sciences, 1963, vol. 2, p. 725, the disclosure of which is incorporated herein by reference,
The results are expressed by a DE50 or dose of product, in mg/kg, capable of exerting an antihypothermic effect equal to 50% of the antihypothermic effect caused by 15 mg/kg (oral) of imipramine.

[3] = Rattus norvegicus, po, read-out: % of inhibition (relative reduction of the proportion of serum triglycerides with respect to control animals)
[4] = rat, oral, 100 mg/kg, 2 h before 20 ml/kg olive oil, Student Fischer T test 0.01, read-out: % of inhibition (relative reduction of the proportion of serum triglycerides with respect to control animals)

Q: Which inhibition at 100 mg/kg (serum triglycerides; [3]) does the source give for `O=C(O)c1cccnc1` [Nictotinic acid, nicotinic acid, reference compound] here?
A: 50%

Q: For `O[C@H](c1ccccc1)[C@H]1CCCN1` (relative stereo) [Example 2, α-phenyl-2-pyrrolidine methanol (threo isomer)], which inhibition at 6.25 mg/kg (serum triglycerides; [3]) is on record?
A: 41%

Q: And the inhibition at 50 mg/kg (serum triglycerides; [3])?
A: 45%

Q: And the “hypotriglyceridemiant activity (in words)” value (serum triglycerides; rat, oral, Example 2 at 6.25 mg/kg)?
A: still very active

Q: And the LD50 at 72 h [1]?
A: 600 mg/kg

Q: What about the ED50 [2] of the same molecule?
A: > 150 mg/kg

Q: Which LD50 at 72 h [1] does the source give for `CN1CCC[C@@H]1[C@H](O)c1ccccc1` (relative stereo) [Example 4, α-phenyl-2-(1-methyl-pyrrolidine)methanol (threo isomer)] here?
A: 800 mg/kg

Q: With `O[C@H](c1ccc(Cl)cc1)[C@H]1CCCN1` (relative stereo) [Example 7, α-(4-chloro-phenyl)-2-pyrrolidine methanol (threo isomer)] as the molecule, how does the inhibition at 100 mg/kg (serum triglycerides; [4]) read?
A: 41%

Q: What about the LD50 at 72 h [1] of the same molecule?
A: 400 mg/kg

Q: And the ED50 [2]?
A: > 50 mg/kg

Q: For `O[C@H](c1ccccc1)[C@H]1CCCN1Cc1ccccc1` (relative stereo) [Example 3, α-phenyl-2-(1-benzyl-pyrrolidine) methanol (threo isomer)], which LD50 at 72 h [1] is on record?
A: 270 mg/kg

Q: Which inhibition at 100 mg/kg (serum triglycerides; [4]) does the source give for `OCCN1CCC[C@@H]1[C@H](O)c1ccccc1` (relative stereo) [Example 5, α-phenyl-2-(1-β-hydroxyethyl-pyrrolidine)methanol(threo isomer)] here?
A: 45%

Q: What about the LD50 at 72 h [1] of the same molecule?
A: 675 mg/kg

Q: For `CC(C)(C)c1ccc([C@@H](O)[C@@H]2CCCN2)cc1` (relative stereo) [Example 10, α-(4-tertiobutyl-phenyl)-2-pyrrolidine methanol (erythro isomer)], which LD50 at 72 h [1] is on record?
A: 600 mg/kg

Q: For `O[C@H](c1ccc(C2CCCCC2)cc1)[C@@H]1CCCN1` (relative stereo) [Example 8, α-(4-cyclohexyl-phenyl)-2-pyrrolidine methanol (erythro isomer)], which LD50 at 72 h [1] is on record?
A: > 900 mg/kg

Q: Which results are given for `O[C@H](c1ccccc1)[C@@H]1CCCN1` (relative stereo) [Example 1, α-phenyl-2-pyrrolidine-methanol (erythro isomer)]?
A: inhibition at 50 mg/kg (serum triglycerides; [3]): 33%; ED50 [2]: 4.5 mg/kg

Q: Which results are given for `O[C@H](c1ccc(Cl)cc1)[C@@H]1CCCN1` (relative stereo) [Example 6, α-(4-chloro-phenyl)-2-pyrrolidine methanol (erythro isomer)]?
A: LD50 at 72 h [1]: 675 mg/kg; ED50 [2]: 18 mg/kg
